In patent US20100249030A1, “ANTI-MITOTIC AGENT AND AURORA KINASE INHIBITOR COMBINATION AS ANTI-CANCER TREATMENT” (Schering Corporation, priority 2007, published 2010):
Like-named read-outs stand apart in the source and are kept apart here.

Assays:
[1] = tested on: HCT-116 colon cancer cells; experiment: FACS (flow cytometric) analysis of endoreduplication (>4N DNA content) in HCT-116 colon cancer cells; type: cell-based; details: for cell cycle distribution after release from anti-mitotic pretreatment: 16 hours pretreatment (5 nM taxotere / 0.4 μg/ml nocodazole), then released into DMSO; for cell cycle distribution after anti-mitotic pretreatment (labeled 0 hours): 16 hours pretreatment, 5 nM taxotere / 0.4 μg/ml nocodazole; for Aurora kinase inhibitor exposure at which endoreduplication was still observed (as little as): after 16 hours 5 nM taxotere pretreatment; for exposure to Aurora kinase inhibitor required to induce endoreduplication (>4N DNA content) or cell death: asynchronous cells, 250 nM VX-680, 1000 nM COMPOUND X, 25 nM COMPOUND Z; for exposure to Aurora kinase inhibitor required to induce endoreduplication (>4N DNA content) or cell death / endoreduplication (>4N DNA content): single agent; for time required for Aurora inhibitor to induce endoreduplication, change after pre-treatment: following 16 hour pre-treatment with nocodazole, 250 nM VX-680, 1000 nM COMPOUND X or COMPOUND Z; for effect of anti-mitotic pre-treatment on the exposure time required for an Aurora kinase inhibitor to induce endoreduplication: 16 hour pre-treatment with the anti-mitotic agent (5 nM taxol, 10-50 nM KSP inhibitors)
Procedure: Asynchronous cells require 24 hour exposure to Aurora kinase inhibitors (such as 250 nM VX-680 or 1000 nM COMPOUND X. (Compound X is disclosed in WO 2008/057512, filed Nov. 6, 2007, Example 4-3 and Claim 70, Example 4-3 and Claim 70 and is shown below and it is represented in Formula H and Table 2, column 2, row 17 of the present application) or 25 nM COMPOUND Z (Compound Z is disclosed in PCT US2008/007295, filed Jun. 11, 2008, Example 76-2 and Claim 25, row 7, column 4 and it is represented in Table 13, compound 76-2 of the present application)) to induce endoreduplication (>4N DNA content) or cell death. For example, HCT-116 colon cancer cells were treated with 1000 nM COMPOUND X or 25 nM COMPOUND Z for the indicated times at which time the drug was washed off and replaced with new media see FIG. 1 and FIG. 8 respectively. Cells were analyzed by FACS after a total of 72 hours.
For example, HCT-116 colon cancer cells were treated with 1000 nM COMPOUND X or 25 nM COMPOUND Z for the indicated times at which time the drug was washed off and replaced with new media see FIG. 2 and FIG. 9 respectively. Cells were analyzed by FACS after a total of 24 hours.
For example, HCT-116 colon cancer cells were treated for 16 hours with DMSO (FIG. 3) or 5 nM taxotere and then exposed to DMSO or 1000 nM COMPOUND X or 25 nM COMPOUND Z for 4, 8, and 24 hours. After 4 or 8 hours, COMPOUND X or COMPOUND Z was washed off and new media was added to the cells. Cells were harvested after 24 hours and analyzed by FACS (see FIG. 4 and FIG. 11 respectively). Following DMSO pretreatment, DMSO had no effect on cell cycle distribution. […] Endoreduplication was observed even when COMPOUND X or COMPOUND Z exposure was as little as 4 hours.
However, following a 16 hour pre-treatment with nocodazole for incrusting, the time required for an Aurora inhibitor (such as 250 nM VX-680 or 1000 nM COMPOUND X or COMPOUND Z) to induce endoreduplication was […]. For example, HCT-116 colon cancer cells were treated for 16 hours with 0.4 μg/ml nocodazole see FIG. 5, and then exposed to DMSO or 1000 nM COMPOUND X or COMPOUND Z for 4, 8 or 24 hours. After 4 or 8 hours, COMPOUND X or COMPOUND Z was washed off and new media was added to the cells. Cells were harvested after 24 hours and analyzed by FACS.
For example, HCT-116 colon cancer cells that were not pretreated, were treated with 5 nM taxotere plus DMSO or 1000 nM COMPOUND X or COMPOUND Z concurrently for 4, 8, or 24 hours. At the indicated time the media was removed and replaced with new media and taxotere was added back into these cells. Cells were harvested after 24 hours and analyzed by FACS see FIG. 6 or FIG. 12 respectively.

[2] = tested on: HCT-116 colon cancer cells; experiment: as above; type: cell-based; details: after 16 hours 10 nM Ispinesib pretreatment; 1000 nM Compound X / 25 nM Compound Z
[3] = tested on: phosphorylation of Histone H3 (at serine-10); experiment: Inhibition of phosphorylation of Histone H3 (serine-10) stimulated by anti-mitotic agents; type: cell-based; details: stimulated by taxanes, KSP inhibitor, and nocodazole
Procedure: (§1) Single agent Aurora kinase inhibitors require a drug exposure time of 24 hours to induce endoreduplication in asynchronous cells.

phos-MPM2 marker = experiment: Exit from mitosis measured by phos-MPM2 marker after anti-mitotic induced arrest; type: cell-based; details: taxane and KSP induced arrest
Procedure: as §1

cancer cell lines = details: cited from earlier work; for synergy with Taxotere: Hoover and Harding 2007; for cell growth inhibition in combination with a taxane: VX-680 with taxotere, VE-645 with taxol, AZD1152 with taxol, AACR 2007 abstracts
[4] = tested on: cells arrested with taxol, monastrol or nocodazole; details: Morrow et al. 2005, Ditchfield et al. 2003, cited from earlier work
[5] = 16 hours 5 nM taxotere pretreatment, then 1000 nM Compound X or 25 nM Compound Z for 4, 8 and 24 hours, FACS at 24 hours
[6] = 16 hours 10 nM Ispinesib (KSP inhibitor) pretreatment, then 1000 nM Compound X or 25 nM Compound Z for 4, 8 and 24 hours, FACS at 24 hours
[7] = 16 hours DMSO pretreatment, then 1000 nM COMPOUND X or 25 nM COMPOUND Z for 4, 8 and 24 hours, FACS at 24 hours
[8] = 16 hours nocodazole (0.4 μg/ml) pretreatment, then 4- or 8-hour exposure to Aurora kinase inhibitor, FACS at 24 hours
[9] = 16 hours nocodazole (0.4 μg/ml) pretreatment, then 24 hour exposure to Aurora kinase inhibitor, FACS at 24 hours
[10] = Aurora kinase inhibitor given at the same time as 5 nM taxotere, 4 hour exposure, FACS at 24 hours
[11] = Aurora kinase inhibitor given at the same time as 5 nM taxotere, no pretreatment
[12] = 1000 nM Compound X / 25 nM Compound Z
[13] = 24 hour exposure, FACS after a total of 24 hours, 250 nM VX-680 / 1000 nM Compound X / 25 nM Compound Z
[14] = drug exposure for 24, 48, or 72 hours, FACS after a total of 72 hours, 1000 nM Compound X / 25 nM Compound Z
[15] = exposure less than 24 hours then drug washed off, FACS after a total of 72 hours, 1000 nM Compound X / 25 nM Compound Z
[16] = exposure less than 24 hours then washed off, FACS after a total of 24 hours, 250 nM VX-680 / 1000 nM Compound X / 25 nM Compound Z

Compound: CC(=O)O[C@@]12CO[C@@H]1C[C@H](O)[C@@]1(C)C(=O)[C@H](O)C3=C(C)[C@@H](OC(=O)[C@H](O)[C@@H](NC(=O)OC(C)(C)C)c4ccccc4)C[C@@](O)([C@@H](OC(=O)c4ccccc4)[C@H]21)C3(C)C [Taxotere, docetaxel, reference compound]
- cell cycle distribution after release from anti-mitotic pretreatment [1]: exited mitosis
- cell cycle distribution after anti-mitotic pretreatment (labeled 0 hours) [1]: accumulated in mitosis (4N DNA)

Compound: CSc1cn2c(-c3cn[nH]c3)cnc2c(Nc2cc(C)ns2)n1 [Compound X]
- endoreduplication [1, 5]: induced endoreduplication
- endoreduplication [1, 6]: induced endoreduplication
- endoreduplication [1, 7]: induced endoreduplication, but only when COMPOUND X or COMPOUND Z exposure was 24 hours
- endoreduplication [1, 8]: insufficient to induce endoreduplication
- endoreduplication [1, 9]: induced endoreduplication
- endoreduplication [1, 10]: not sufficient to induce endoreduplication
- exposure needed to induce endoreduplication [1, 11]: 24 h
- Aurora kinase inhibitor exposure at which endoreduplication was still observed (as little as) [1, 12]: ≤ 4 h
- exposure to Aurora kinase inhibitor required to induce endoreduplication (>4N DNA content) or cell death [1]: 24 h
- time required for Aurora inhibitor to induce endoreduplication, change after pre-treatment [1]: not reduced
- endoreduplication (>4N DNA content) [1, 13]: sufficient to induce endoreduplication
- endoreduplication (>4N DNA content) [1, 14]: resulted in the accumulation of cells that underwent endoreduplication
- endoreduplication (>4N DNA content) [1, 15]: insufficient to induce endoreduplication
- endoreduplication (>4N DNA content) [1, 16]: insufficient to induce endoreduplication
- Aurora kinase inhibitor exposure at which endoreduplication was still observed (as little as) [2]: ≤ 4 h
- inhibition of phosphorylation of Histone H3 (at serine-10) [3]: capable of inhibiting phosphorylation of Histone H3
- exit from mitosis, as measured by phos-MPM2 marker (phos-MPM2 marker): accelerated the exit from mitosis

Compound: Cc1cc(Nc2cc(N3CCN(C)CC3)nc(Sc3ccc(NC(=O)C4CC4)cc3)n2)n[nH]1 [MK-0457]
- synergy with Taxotere (cancer cell lines; long-term survival assays): synergy occurred with simultaneous exposure
- synergy with Taxotere (cancer cell lines; short-term viability assays): synergy occurs with sequential and not simultaneous exposure

Compound: Cc1cc(Nc2cc(N3CCN(C)CC3)nc(Sc3ccc(NC(=O)C4CC4)cc3)n2)n[nH]1 [VX-680, reference compound]
- exposure to Aurora kinase inhibitor required to induce endoreduplication (>4N DNA content) or cell death [1]: 24 h
- time required for Aurora inhibitor to induce endoreduplication, change after pre-treatment [1]: not reduced
- endoreduplication (>4N DNA content) [1, 13]: sufficient to induce endoreduplication
- endoreduplication (>4N DNA content) [1, 16]: insufficient to induce endoreduplication
- inhibition of phosphorylation of Histone H3 (at serine-10) [3]: capable of inhibiting phosphorylation of Histone H3
- cell growth inhibition in combination with a taxane (cancer cell lines): showed enhanced cell growth inhibition
- exit from mitosis, as measured by phos-MPM2 marker (phos-MPM2 marker): accelerated the exit from mitosis

Compound: CCN(CCCOc1ccc2c(Nc3cc(CC(=O)Nc4cccc(F)c4)n[nH]3)ncnc2c1)CCOP(=O)(O)O [AZD1152, reference compound]
- cell growth inhibition in combination with a taxane (cancer cell lines): showed enhanced cell growth inhibition
- exit from mitosis, as measured by phos-MPM2 marker (phos-MPM2 marker): accelerated the exit from mitosis

Compound: CC[C@]1(O)C[C@H]2CN(CCc3c([nH]c4ccccc34)[C@@](C(=O)OC)(c3cc4c(cc3OC)N(C=O)[C@H]3[C@@](O)(C(=O)OC)[C@H](OC(C)=O)[C@]5(CC)C=CCN6CC[C@]43[C@@H]65)C2)C1 [vincristine, reference compound]
- effect of anti-mitotic pre-treatment on the exposure time required for an Aurora kinase inhibitor to induce endoreduplication [1]: did not result in the same reduction in required exposure time

Compound: COc1cc2c(Nc3ccc(NC(=O)c4ccccc4)cc3)ncnc2cc1OCCCN1CCOCC1 [ZM4477439]
- mitotic arrest ([4]; arrest induced by nocodazole): not by nocodazole
- mitotic arrest ([4]; arrest induced by taxol): abrogated mitotic arrest induced by taxol

Compound: CCN(Cc1cc(Nc2nc(C)cn3c(-c4cn[nH]c4)cnc23)sn1)C(C)(C)CO [Compound Z]
- endoreduplication [1, 5]: induced endoreduplication
- endoreduplication [1, 6]: induced endoreduplication
- endoreduplication [1, 7]: induced endoreduplication, but only when COMPOUND X or COMPOUND Z exposure was 24 hours
- endoreduplication [1, 8]: insufficient to induce endoreduplication
- endoreduplication [1, 9]: induced endoreduplication
- endoreduplication [1, 10]: not sufficient to induce endoreduplication
- endoreduplication ([1]; Aurora kinase inhibitor given at the same time as 5 nM taxotere, 4 hour exposure, FACS at 24 hours, listed as COMPOUND Z): not sufficient
- exposure needed to induce endoreduplication [1, 11]: 24 h
- exposure needed to induce endoreduplication ([1]; Aurora kinase inhibitor given at the same time as Ispinesib (KSP inhibitor)): 24 h
- endoreduplication ([1]; Aurora kinase inhibitor given at the same time as Ispinesib (KSP inhibitor), 4 hour exposure): not sufficient to induce endoreduplication
- Aurora kinase inhibitor exposure at which endoreduplication was still observed (as little as) [1, 12]: ≤ 4 h
- exposure to Aurora kinase inhibitor required to induce endoreduplication (>4N DNA content) or cell death [1]: 24 h
- time required for Aurora inhibitor to induce endoreduplication, change after pre-treatment [1]: not reduced
- endoreduplication (>4N DNA content) [1, 13]: sufficient to induce endoreduplication
- endoreduplication (>4N DNA content) ([1]; 24 hour exposure, FACS after a total of 24 hours, 250 nM VX-680 / 1000 nM Compound X / 25 nM Compound Z, listed as COMPOUND Z): resulted in the accumulation of cells that underwent endoreduplication
- endoreduplication (>4N DNA content) [1, 14]: resulted in the accumulation of cells that underwent endoreduplication
- endoreduplication (>4N DNA content) [1, 15]: insufficient to induce endoreduplication
- endoreduplication (>4N DNA content) [1, 16]: insufficient to induce endoreduplication
- Aurora kinase inhibitor exposure at which endoreduplication was still observed (as little as) [2]: ≤ 4 h
- inhibition of phosphorylation of Histone H3 (at serine-10) [3]: capable of inhibiting phosphorylation of Histone H3
- exit from mitosis, as measured by phos-MPM2 marker (phos-MPM2 marker): accelerated the exit from mitosis

Compound: COC(=O)Nc1nc2ccc(C(=O)c3cccs3)cc2[nH]1 [nocodazole, reference compound]
- effect of anti-mitotic pre-treatment on the exposure time required for an Aurora kinase inhibitor to induce endoreduplication [1]: did not result in the same reduction in required exposure time
- cell cycle distribution after release from anti-mitotic pretreatment [1]: exited mitosis
- cell cycle distribution after anti-mitotic pretreatment (labeled 0 hours) [1]: accumulated in mitosis (4N DNA)
